Experimental data from patent US9163256B2, “Mutant receptors and their use in a nuclear receptor-based inducible gene expression system” (priority 2004, dated 2015).

Legend:
[1] = tested on: CfEcR-DEF mutant V107I/Y127E; assay: GAL4-driven luciferase reporter assay in NIH3T3 cells; assay type: cell-based, Choristoneura fumiferana; parameters: Concentration (mM) at max FI: unit not given here
Procedure: (§1) This construct was prepared in the same way as in switch 1.1 above except wild-type CfEcR-DEF was replaced with mutant CfEcR-DEF comprising a ligand binding domain comprising a substitution mutation selected from Table 1 below.
DNAs were transfected into mouse NIH3T3 cells (ATCC) as follows. Standard methods for culture and maintenance of the cells were followed. Cells were harvested and plated 96-well plates at 2,500 cells per well, in 50 μL of growth medium containing 10% fetal bovine serum (FBS). Twenty-four hours later, the cells were treated with 35 μL of serum-free growth medium containing either dimethylsulfoxide (DMSO; control) or a DMSO solution of ligand. The cells were then transfected using Superfect (Qiagen Inc.) transfection reagent. For each well, 0.625 μL of Superfect was mixed with 14.2 μL of serum-free growth medium. 0.16 μg of reporter construct and 0.04 μg of each receptor construct were added to the transfection reagent mix. […]
Reporter Assays: Cells were harvested 40 hours after adding ligands. […] Luciferase activity was measured using Dual-Luciferase reporter assay system from Promega Corporation following the manufacturer's instructions. Fold induction (FI) activities were calculated by dividing relative light units (“RLU”) in ligand treated cells with RLU in DMSO treated cells (untreated control).

CfEcR-DEF mutant T52W = CfEcR-DEF mutant T52W (Choristoneura fumiferana, UniProt O77255, T335W); assay: as above; assay type: cell-based
CfEcR-DEF mutant T52W, sequence (O77255 entry or part of it T335W): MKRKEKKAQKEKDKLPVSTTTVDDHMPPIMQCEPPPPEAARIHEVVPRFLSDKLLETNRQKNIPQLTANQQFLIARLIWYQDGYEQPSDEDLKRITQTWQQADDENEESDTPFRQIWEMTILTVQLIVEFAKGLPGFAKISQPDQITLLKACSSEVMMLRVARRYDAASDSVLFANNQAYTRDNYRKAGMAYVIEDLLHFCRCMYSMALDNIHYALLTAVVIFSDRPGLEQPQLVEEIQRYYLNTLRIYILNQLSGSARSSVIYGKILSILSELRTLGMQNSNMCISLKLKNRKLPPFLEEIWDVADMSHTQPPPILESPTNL
CfEcR-DEF mutant T52W, sequence (P28702 299-449, further chain): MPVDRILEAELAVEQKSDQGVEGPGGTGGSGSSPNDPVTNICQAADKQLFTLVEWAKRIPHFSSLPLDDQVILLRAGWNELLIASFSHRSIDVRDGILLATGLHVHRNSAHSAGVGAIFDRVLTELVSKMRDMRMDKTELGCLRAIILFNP
Outline: (§2)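 Mutant CfEcR-DEF receptor and GAL4-driven luciferase reporter constructs transfected into mouse NIH3T3 cells with DMSO or ligand added; maintained 48 h at 37° C in 5% FBS, harvested 40 h after ligand addition. Dual-luciferase read-out; fold induction = RLU with ligand / RLU with DMSO.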

CfEcR-DEF mutant T52Q = CfEcR-DEF mutant T52Q (Choristoneura fumiferana, UniProt O77255, T335Q); assay: as above; assay type: cell-based
CfEcR-DEF mutant T52Q, sequence (P28702 299-449): as the sequence (P28702 299-449, further chain) above
CfEcR-DEF mutant T52Q, sequence (O77255 entry or part of it T335Q): as the sequence (O77255 entry or part of it T335W) above, with W117Q counted along it
Outline: as §2

CfEcR-DEF mutant L223K = CfEcR-DEF mutant L223K (Choristoneura fumiferana, UniProt O77255, L506K); assay: as above; assay type: cell-based
CfEcR-DEF mutant L223K, sequence (P28702 298-449): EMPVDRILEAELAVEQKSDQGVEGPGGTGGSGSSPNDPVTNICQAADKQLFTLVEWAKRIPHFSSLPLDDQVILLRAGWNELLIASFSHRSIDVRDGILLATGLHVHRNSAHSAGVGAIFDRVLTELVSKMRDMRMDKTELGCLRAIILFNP
CfEcR-DEF mutant L223K, sequence (O77255 entry or part of it L506K): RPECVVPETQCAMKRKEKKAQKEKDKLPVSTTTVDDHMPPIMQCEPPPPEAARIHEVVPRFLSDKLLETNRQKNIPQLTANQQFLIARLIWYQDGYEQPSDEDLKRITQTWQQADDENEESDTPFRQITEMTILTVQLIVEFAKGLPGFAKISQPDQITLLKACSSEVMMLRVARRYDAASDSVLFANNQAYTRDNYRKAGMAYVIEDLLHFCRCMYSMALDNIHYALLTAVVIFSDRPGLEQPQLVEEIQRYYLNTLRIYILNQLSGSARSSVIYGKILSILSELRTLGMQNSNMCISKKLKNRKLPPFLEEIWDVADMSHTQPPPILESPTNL
Outline: as §2

CfEcR-DEF mutant W238M = CfEcR-DEF mutant W238M (Choristoneura fumiferana, UniProt O77255, W521M); assay: as above; assay type: cell-based
CfEcR-DEF mutant W238M, sequence (P28702 299-449): as the sequence (P28702 299-449, further chain) above
CfEcR-DEF mutant W238M, sequence (O77255 entry or part of it W521M): as the sequence (O77255 entry or part of it L506K) above, with K300L, W315M counted along it
Outline: as §2

CfEcR-DEF mutant T52R = CfEcR-DEF mutant T52R (Choristoneura fumiferana, UniProt O77255, T335R); assay: as above; assay type: cell-based
CfEcR-DEF mutant T52R, sequence (O77255 entry or part of it T335R): as the sequence (O77255 entry or part of it T335W) above, with W117R counted along it
CfEcR-DEF mutant T52R, sequence (P28702 299-449, further chain): as the sequence (P28702 299-449, further chain) above
Outline: as §2

[2] = target: CfEcR-DEF mutant V107I/Y127E/G (Choristoneura fumiferana, UniProt O77255, INS541G/V390I/Y410E); assay: as above; assay type: cell-based
CfEcR-DEF mutant V107I/Y127E/G, sequence (P28702 299-449, stated change not applied): as the sequence (P28702 299-449, further chain) above
CfEcR-DEF mutant V107I/Y127E/G, sequence (O77255 entry or part of it V390I/Y410E/INS541G): as the sequence (O77255 entry or part of it T335W) above, with W117T counted along it
Procedure: as §1
The Gal-4-CfEcR-DEF(VYG) mutant was created by inserting an extra glycine at the C-terminal end of EcR substitution mutant V107I/Y127E [CfECR(VY)] by PCR. Essentially, this was done in two steps: PCR-amplification of CfEcR-DEF(VYG) and substitution of the CfEcR(VY) in the vector GAL4-CfEcR DEF(VY) pBIND 1-9 with the PCR-amplified CfEcR-DEF(VYG). The CfEcR-DEF region (with the extra glycine) was amplified by using the vector GAL4-CfEcR DEF(VY) pBIND 1-9 as template and the following PCR primers: […]
(§3) DNAs were transfected into mouse NIH3T3 cells (ATCC) as follows. Standard methods for culture and maintenance of the cells were followed. Cells were harvested and plated 96-well plates at 2,500 cells per well, in 50 μL of growth medium containing 10% fetal bovine serum (FBS). Twenty-four hours later, the cells were treated with 35 μL of serum-free growth medium containing either dimethylsulfoxide (DMSO; control) or a DMSO solution of ligand. The cells were then transfected using Superfect (Qiagen Inc.) transfection reagent. For each well, 0.625 μL of Superfect was mixed with 14.2 μL of serum-free growth medium. 0.16 μg of reporter construct and 0.04 μg of each receptor construct were added to the transfection reagent mix. The contents of the transfection mix were mixed in a vortex mixer and let stand at room temperature for 30 minutes. At the end of incubation, 15 μL of transfection mix was added to the cells. The cells were maintained at 37° C. and 5% CO2 for 48 hours in 5% FBS.
(§4) Reporter Assays: Cells were harvested 40 hours after adding ligands. 125 μL of passive lysis buffer (part of Dual-Luciferase reporter assay system from Promega Corporation) were added to each well of the […] plate. The plates were placed on a rotary shaker for 15 minutes. Twenty μL of lysate were assayed. Luciferase activity was measured using Dual-Luciferase reporter assay system from Promega Corporation following the manufacturer's instructions. Fold induction (FI) activities were calculated by dividing relative light units (“RLU”) in ligand treated cells with RLU in DMSO treated cells (untreated control).

CfEcR-DEF mutant L132N = assay: as above; assay type: cell-based, Choristoneura fumiferana
Procedure: as §1, §3, §4

CfEcR-DEF mutant F109P = assay: as above; assay type: cell-based, Choristoneura fumiferana
Procedure: as §1, §3, §4

CfEcR-DEF mutant N119F = assay: as above; assay type: cell-based, Choristoneura fumiferana
Procedure: as §1, §3, §4

CfEcR-DEF mutant I51N = assay: as above; assay type: cell-based, Choristoneura fumiferana
Procedure: as §1, §3, §4

CfEcR-DEF mutant V128F = CfEcR-DEF mutant V128F (Choristoneura fumiferana, UniProt O77255, V411F); assay: cell-based; parameters: Concentration (mM) at max FI: unit not given here
CfEcR-DEF mutant V128F, sequence (P28702 299-449): as the sequence (P28702 299-449, further chain) above
CfEcR-DEF mutant V128F, sequence (O77255 entry or part of it V411F): as the sequence (O77255 entry or part of it T335W) above, with W117T, V193F counted along it
Outline: as §2

CfEcR-DEF mutant V96E = CfEcR-DEF mutant V96E (Choristoneura fumiferana, UniProt O77255, V379E); assay: cell-based; parameters: Concentration (mM) at max FI: unit not given here
CfEcR-DEF mutant V96E, sequence (O77255 entry or part of it V379E): as the sequence (O77255 entry or part of it T335W) above, with W117T, V161E counted along it
CfEcR-DEF mutant V96E, sequence (P28702 299-449, further chain): as the sequence (P28702 299-449, further chain) above
Outline: as §2

CfEcR-DEF mutant F109M = CfEcR-DEF mutant F109M (Choristoneura fumiferana, UniProt O77255, F392M); assay: cell-based; parameters: Concentration (mM) at max FI: unit not given here
CfEcR-DEF mutant F109M, sequence (O77255 entry or part of it F392M): as the sequence (O77255 entry or part of it L506K) above, with F186M, K300L counted along it
CfEcR-DEF mutant F109M, sequence (P28702 299-449, further chain): as the sequence (P28702 299-449, further chain) above
Outline: as §2

CfEcR-DEF mutant F48Y = CfEcR-DEF mutant F48Y (Choristoneura fumiferana, UniProt O77255, F331Y); assay: cell-based; parameters: Concentration (mM) at max FI: unit not given here
CfEcR-DEF mutant F48Y, sequence (O77255 entry or part of it F331Y): as the sequence (O77255 entry or part of it L506K) above, with F125Y, K300L counted along it
CfEcR-DEF mutant F48Y, sequence (P28702 299-449, further chain): as the sequence (P28702 299-449, further chain) above
Outline: as §2

CfEcR-DEF mutant T52P = CfEcR-DEF mutant T52P (Choristoneura fumiferana, UniProt O77255, T335P); assay: cell-based; parameters: Concentration (mM) at max FI: unit not given here
CfEcR-DEF mutant T52P, sequence (P28702 298-449): as the sequence (P28702 298-449) above
CfEcR-DEF mutant T52P, sequence (O77255 entry or part of it T335P): as the sequence (O77255 entry or part of it L506K) above, with T129P, K300L counted along it
Outline: as §2

CfEcR-DEF mutant Y120M = CfEcR-DEF mutant Y120M (Choristoneura fumiferana, UniProt O77255, Y403M); assay: cell-based; parameters: Concentration (mM) at max FI: unit not given here
CfEcR-DEF mutant Y120M, sequence (O77255 entry or part of it Y403M): as the sequence (O77255 entry or part of it T335W) above, with W117T, Y185M counted along it
CfEcR-DEF mutant Y120M, sequence (P28702 299-449, further chain): as the sequence (P28702 299-449, further chain) above
Outline: as §2

CfEcR-DEF mutant F48W = CfEcR-DEF mutant F48W (Choristoneura fumiferana, UniProt O77255, F331W); assay: cell-based; parameters: Concentration (mM) at max FI: unit not given here
CfEcR-DEF mutant F48W, sequence (P28702 299-449): as the sequence (P28702 299-449, further chain) above
CfEcR-DEF mutant F48W, sequence (O77255 entry or part of it F331W): as the sequence (O77255 entry or part of it L506K) above, with F125W, K300L counted along it
Outline: as §2

[3] = NIH3T3, 40 h, read-out: Rel Max FI
[4] = NIH3T3, mouse, 40 h, read-out: GS-E ligand max FI (relative to DMSO)

CCc1c(OC)cccc1C(=O)NN(C(=O)c1cc(C)cc(C)c1)C(C)(C)C [RG-102240, N-(2-ethyl-3-methoxybenzoyl)-N′-(3,5-dimethylbenzoyl)-N′-tert-butylhydrazine]
GS-E ligand max FI (relative to DMSO) [1]: 3146 | Concentration (mM) at max FI ([1]; GS-E ligand): 10 | EC50 (CfEcR-DEF mutant T52W): 18.3 µM | Emax (CfEcR-DEF mutant T52W; [3]): 100% | EC50 (CfEcR-DEF mutant T52Q): 2.95 µM | Emax (CfEcR-DEF mutant T52Q; [3]): 100% | EC50 (CfEcR-DEF mutant L223K): 3.93 µM | Emax (CfEcR-DEF mutant L223K; [3]): 100% | EC50 (CfEcR-DEF mutant W238M): 10.5 µM | Emax (CfEcR-DEF mutant W238M; NIH3T3, 40 h, read-out: Rel MaxFI): 100% | EC50 (CfEcR-DEF mutant T52R): 6.69 µM | Emax (CfEcR-DEF mutant T52R; [3]): 100% | EC50 [2]: 0.17 µM | Emax [2, 3]: 100% | GS-E ligand max FI (relative to DMSO) (CfEcR-DEF mutant L132N): 785 | Concentration (mM) at max FI (CfEcR-DEF mutant L132N; GS-E ligand): 33.30 mM | GS-E ligand max FI (relative to DMSO) (CfEcR-DEF mutant F109P): 1 | Concentration (mM) at max FI (CfEcR-DEF mutant F109P; GS-E ligand): 10.00 mM | Fold increase over WT (CfEcR-DEF mutant N119F; 1.6 nM ligand): 1.22 | Fold increase over WT (CfEcR-DEF mutant N119F; 8 nM ligand): 0.73 | Fold increase over WT (CfEcR-DEF mutant N119F; 40 nM ligand): 0.06 | Fold increase over WT (CfEcR-DEF mutant N119F; 200 nM ligand): 0.01 | Fold increase over WT (CfEcR-DEF mutant N119F; 1 μM ligand): 0.08 | Fold increase over WT (CfEcR-DEF mutant N119F; 5 μM ligand): 0.59 | GS-E ligand max FI (relative to DMSO) (CfEcR-DEF mutant I51N): 1 | Concentration (mM) at max FI (CfEcR-DEF mutant I51N; GS-E ligand): 33.30 mM | EC50 (CfEcR-DEF mutant V128F; EC50, mutant V128F): > 33 µM | Emax (CfEcR-DEF mutant V128F; [3]): 0% | maximal fold induction (CfEcR-DEF mutant V128F; [4]): 550 | Concentration (mM) at max FI (CfEcR-DEF mutant V128F; mutant V128F, GS-E ligand): 33.30 | EC50 (CfEcR-DEF mutant V96E): ~2 µM | Emax (CfEcR-DEF mutant V96E; [3]): 100% | maximal fold induction (CfEcR-DEF mutant V96E; [4]): 2960 | Concentration (mM) at max FI (CfEcR-DEF mutant V96E; mutant V96E, GS-E ligand): 33.30 | EC50 (CfEcR-DEF mutant F109M): 0.66 µM | Emax (CfEcR-DEF mutant F109M; [3]): 100% | maximal fold induction (CfEcR-DEF mutant F109M; [4]): 1480 | Concentration (mM) at max FI (CfEcR-DEF mutant F109M; mutant F109M, GS-E ligand): 3.3 | EC50 (CfEcR-DEF mutant F48Y): 1.27 µM | Emax (CfEcR-DEF mutant F48Y; [3]): 100% | maximal fold induction (CfEcR-DEF mutant F48Y; [4]): 1360 | Concentration (mM) at max FI (CfEcR-DEF mutant F48Y; mutant F48Y, GS-E ligand): 33.3 | EC50 (CfEcR-DEF mutant T52P): ~10 µM | Emax (CfEcR-DEF mutant T52P; [3]): 100% | maximal fold induction (CfEcR-DEF mutant T52P; [4]): 301 | Concentration (mM) at max FI (CfEcR-DEF mutant T52P; mutant T52P, GS-E ligand): 33.3 | EC50 (CfEcR-DEF mutant Y120M): ~4 µM | Emax (CfEcR-DEF mutant Y120M; [3]): 100% | maximal fold induction (CfEcR-DEF mutant Y120M; [4]): 1710 | Concentration (mM) at max FI (CfEcR-DEF mutant Y120M; mutant Y120M, GS-E ligand): 33.3 | EC50 (CfEcR-DEF mutant F48W): ~1 µM | Emax (CfEcR-DEF mutant F48W; [3]): 100% | maximal fold induction (CfEcR-DEF mutant F48W; [4]): 1640 | Concentration (mM) at max FI (CfEcR-DEF mutant F48W; mutant F48W, GS-E ligand): 33.3
